Test results reported in US12146004B2, “Polymyxin compounds and uses thereof” (priority 2014, dated 2024).
Values after ≈ are worked out from the molar mass of the structure shown. Numbered stars: 1 amine (or outer) side, 2 acyl side, 3 side chain; on linkers, the order of the positions; unused ones are H or OH. Bridge positions count the residues as written; N and C are the ends. Square brackets hold non-standard residues; d marks the D form. Peptide text beside a SMILES is read from it. * marks the point of attachment. ξ: configuration not given here. X12 = O=C([C@@H](Cc1ccc(C2CCCCC2)cc1)N[*:1])[*:2]; dBip = N[C@H](Cc1ccc(-c2ccccc2)cc1)C(=O)O; Octanoyl(6-Me) = CCC(C)CCCCC(=O)*; X3 = CCCCCCCCN1CCNC[C@H]1C(=O)*; dCha = N[C@H](CC1CCCCC1)C(=O)O; Thr(3ξ) = CC(O)[C@H](N)C(=O)O; X8 = NCC(C(=O)*)C1CCCCC1; Dab = NCC[C@H](N)C(=O)O; Dap = NC[C@H](N)C(=O)O; X2 = CC(C)CC(CN)C(=O)*

How the values were obtained:
Type in all cases: cell-based
Acinetobacter baumannii = system: Acinetobacter baumannii
How it was run: (§1)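 In vitro susceptibility was determined across up to nine strains of each pathogen, some resistant. Potency is given as MIC, μg/mL.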

Klebsiella pneumoniae = system: Klebsiella pneumoniae
How it was run: as §1

Escherichia coli = system: Escherichia coli
How it was run: as §1

Pseudomonas aeruginosa = system: Pseudomonas aeruginosa
How it was run: as §1

HK-2 cells = system: HK-2 cells
Excerpt: Values are reported relative to Polymyxin B.

SMILES | MIC A. baumanii 053 (Acinetobacter baumannii) | MIC A. baumanii 056 (Acinetobacter baumannii) | MIC A. baumanii ATCC BAA-747 (Acinetobacter baumannii) | MIC K. pneumoniae 063 (Klebsiella pneumoniae) | MIC K. pneumoniae 065 (Klebsiella pneumoniae) | MIC K. pneumoniae ATCC 4352 (Klebsiella pneumoniae) | MIC E. coli 058 (Escherichia coli) | MIC E. coli 061 (Escherichia coli) | MIC E. coli ATCC 25922 (Escherichia coli) | MIC P. aeruginosa 068 (Pseudomonas aeruginosa) | MIC P. aeruginosa 070 (Pseudomonas aeruginosa) | MIC P. aeruginosa ATCC 27853 (Pseudomonas aeruginosa) | HK-2 IC50 (HK-2 cells) | MIC A. baumanii NCTC 13424 (Acinetobacter baumannii) | MIC E. coli NCTC 9001 (Escherichia coli) | MIC P. aeruginosa CCUG 59347 (Pseudomonas aeruginosa) | further results
CCC(C)CCCCC(=O)N[C@@H](CCN)C(=O)N[C@H](C(=O)N[C@@H](CCN)C(=O)N[C@H]1CCNC(=O)[C@H](C(C)O)NC(=O)[C@H](CCN)NC(=O)[C@H](CCN)NC(=O)[C@H](CC(C)C)NC(=O)[C@@H](CC2CCCCC2)NC(=O)[C@H](CCN)NC1=O)C(C)O (stereo partly shown) [Example 22] ({Octanoyl(6-Me)}-[Dab][Thr(3ξ)][Dab][Dab][Dab][dCha]L[Dab][Dab][Thr(3ξ)]; lactam 4-C) | 64 µg/mL (≈ 52.9 µM) | 32 µg/mL (≈ 26.5 µM) | 0.5 µg/mL (≈ 0.413 µM) | 32 µg/mL (≈ 26.5 µM) | 1 µg/mL (≈ 0.827 µM) | 0.5 µg/mL (≈ 0.413 µM) | 2 µg/mL (≈ 1.65 µM) | 8 µg/mL (≈ 6.61 µM) | 0.5 µg/mL (≈ 0.413 µM) | 4 µg/mL (≈ 3.31 µM) | 4 µg/mL (≈ 3.31 µM) | 1 µg/mL (≈ 0.827 µM) | 17 µg/mL |  |  |  | MIC K. pneumoniae 062 (Klebsiella pneumoniae): 16 µg/mL (≈ 13.2 µM); MIC K. pneumoniae 064 (Klebsiella pneumoniae): 4 µg/mL (≈ 3.31 µM); MIC K. pneumoniae 066 (Klebsiella pneumoniae): 4 µg/mL (≈ 3.31 µM); MIC K. pneumoniae 067 (Klebsiella pneumoniae): 64 µg/mL (≈ 52.9 µM); MIC E. coli 059 (Escherichia coli): 2 µg/mL (≈ 1.65 µM); MIC E. coli 060 (Escherichia coli): 4 µg/mL (≈ 3.31 µM)
CC(C)CC(CN)C(=O)N[C@H](C(=O)N[C@@H](CN)C(=O)N[C@H]1CCNC(=O)[C@H]([C@@H](C)O)NC(=O)[C@H](CCN)NC(=O)[C@H](CCN)NC(=O)[C@H](CC(C)C)NC(=O)[C@@H](Cc2ccc(C3CCCCC3)cc2)NC(=O)[C@H](CCN)NC1=O)C(C)O (stereo partly drawn) [Example 27, 2-(Aminomethyl)-4-methylpentanoyl L-Thr-L-Dap-polymyxin [D-(4-cyclohexyl Phe)]-6 heptapeptide] (X2-[Thr(3ξ)][Dap][Dab][Dab][X12]L[Dab][Dab]T; lactam 3-C) | 8 µg/mL (≈ 6.91 µM) | 4 µg/mL (≈ 3.45 µM) | 0.5 µg/mL (≈ 0.432 µM) | 8 µg/mL (≈ 6.91 µM) | 0.5 µg/mL (≈ 0.432 µM) | 0.25 µg/mL (≈ 0.216 µM) | 2 µg/mL (≈ 1.73 µM) | 8 µg/mL (≈ 6.91 µM) | 0.5 µg/mL (≈ 0.432 µM) | 4 µg/mL (≈ 3.45 µM) | 2 µg/mL (≈ 1.73 µM) | 0.5 µg/mL (≈ 0.432 µM) | 18 µg/mL | 0.25 µg/mL (≈ 0.216 µM) | 0.5 µg/mL (≈ 0.432 µM) | 1 µg/mL (≈ 0.863 µM) | 
CC(C)C[C@@H]1NC(=O)[C@@H](CC2CCCCC2)NC(=O)[C@H](CCN)NC(=O)[C@@H](NC(=O)[C@H](CN)NC(=O)[C@@H](NC(=O)C(CN)C2CCCCC2)C(C)O)CCNC(=O)[C@H]([C@@H](C)O)NC(=O)[C@H](CCN)NC(=O)[C@H](CCN)NC1=O (stereo partly drawn) [Example 28, 3-Amino-2-cyclohexylpropanoyl L-Thr-L-Dap-polymyxin [D-cyclohexylalanine]-6 heptapeptide] (X8-[Thr(3ξ)][Dap][Dab][Dab][dCha]L[Dab][Dab]T; lactam 3-C) | 16 µg/mL (≈ 14.4 µM) | 4 µg/mL (≈ 3.61 µM) | 0.06 µg/mL (≈ 0.0541 µM) | 8 µg/mL (≈ 7.22 µM) | 1 µg/mL (≈ 0.902 µM) | 0.125 µg/mL (≈ 0.113 µM) | 1 µg/mL (≈ 0.902 µM) | 8 µg/mL (≈ 7.22 µM) | 0.25 µg/mL (≈ 0.226 µM) | 4 µg/mL (≈ 3.61 µM) | 4 µg/mL (≈ 3.61 µM) | 0.25 µg/mL (≈ 0.226 µM) | 86 µg/mL | 0.125 µg/mL (≈ 0.113 µM) | 0.125 µg/mL (≈ 0.113 µM) | 0.5 µg/mL (≈ 0.451 µM) | 
CCCCCCCCN1CCNC[C@H]1C(=O)N[C@H](C(=O)N[C@@H](CN)C(=O)N[C@H]1CCNC(=O)[C@H]([C@@H](C)O)NC(=O)[C@H](CCN)NC(=O)[C@H](CCN)NC(=O)[C@H](CC(C)C)NC(=O)[C@@H](Cc2ccc(-c3ccccc3)cc2)NC(=O)[C@H](CCN)NC1=O)C(C)O (stereo partly drawn) [Example 30, (S)-1-Octylpiperazine-2-carbonyl L-Thr-L-Dap-polymyxin [D-(4-phenyl Phe)]-6 heptapeptide.] (X3-[Thr(3ξ)][Dap][Dab][Dab][dBip]L[Dab][Dab]T; lactam 3-C) | 4 µg/mL (≈ 3.2 µM) | 2 µg/mL (≈ 1.6 µM) | 1 µg/mL (≈ 0.8 µM) | 4 µg/mL (≈ 3.2 µM) | 1 µg/mL (≈ 0.8 µM) | 1 µg/mL (≈ 0.8 µM) | 1 µg/mL (≈ 0.8 µM) | 2 µg/mL (≈ 1.6 µM) | 1 µg/mL (≈ 0.8 µM) | 2 µg/mL (≈ 1.6 µM) | 2 µg/mL (≈ 1.6 µM) | 1 µg/mL (≈ 0.8 µM) | 4 µg/mL | 2 µg/mL (≈ 1.6 µM) |  | 2 µg/mL (≈ 1.6 µM) | MIC K. pneumoniae ATCC 13882 (Klebsiella pneumoniae): 1 µg/mL (≈ 0.8 µM)
